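Where inhibition never reached the appropriate level, the endpoint shown equals the highest concentration tested. Otherwise, values were interpolated linearly from a five-concentration, 48-hour dose response in 96-well plates. TGI: total growth inhibition.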
What was measured:
Assay in all cases: NCI anticancer screen, dose series, 48 h
HCC-2998 colon = test system: HCC-2998 colon
RPMI-8226 leukemia = test system: RPMI-8226 leukemia
SN12C renal = test system: SN12C renal
CAKI-1 renal = test system: CAKI-1 renal
SK-MEL-2 melanoma = test system: SK-MEL-2 melanoma
NCI-H460 lung = test system: NCI-H460 lung
A549 NSCLC = test system: A549 NSCLC
UACC-257 melanoma = test system: UACC-257 melanoma
SK-OV-3 ovarian = test system: SK-OV-3 ovarian
HOP-62 NSCLC = test system: HOP-62 NSCLC
NCI-H226 lung = test system: NCI-H226 lung
UACC-62 melanoma = test system: UACC-62 melanoma
OVCAR-5 ovarian = test system: OVCAR-5 ovarian
HCT-116 colon = test system: HCT-116 colon
NCI-H23 lung = test system: NCI-H23 lung
SW-620 colon = test system: SW-620 colon
BT-549 breast = test system: BT-549 breast
HS 578T breast = test system: HS 578T breast
HL-60(TB) leukemia = test system: HL-60(TB) leukemia
DU-145 prostate = test system: DU-145 prostate
COLO 205 colon = test system: COLO 205 colon
SF-295 CNS = test system: SF-295 CNS
LOX IMVI melanoma = test system: LOX IMVI melanoma
OVCAR-8 ovarian = test system: OVCAR-8 ovarian
SF-268 CNS = test system: SF-268 CNS
SNB-19 CNS = test system: SNB-19 CNS
SR leukemia = test system: SR leukemia
EKVX NSCLC = test system: EKVX NSCLC
HOP-92 NSCLC = test system: HOP-92 NSCLC
RXF 393 renal = test system: RXF 393 renal
IGROV1 ovarian = test system: IGROV1 ovarian
M14 melanoma = test system: M14 melanoma
T-47D breast = test system: T-47D breast
UO-31 renal = test system: UO-31 renal
TK-10 renal = test system: TK-10 renal
A498 renal = test system: A498 renal
HCT-15 colon = test system: HCT-15 colon
K-562 leukemia = test system: K-562 leukemia
SK-MEL-5 melanoma = test system: SK-MEL-5 melanoma
786-0 renal = test system: 786-0 renal
CCRF-CEM leukemia = test system: CCRF-CEM leukemia
HT29 colon = test system: HT29 colon
PC-3 prostate = test system: PC-3 prostate
SK-MEL-28 melanoma = test system: SK-MEL-28 melanoma
NCI-H522 lung = test system: NCI-H522 lung
MDA-N = test system: MDA-N
SNB-75 CNS = test system: SNB-75 CNS
SF-539 CNS = test system: SF-539 CNS
OVCAR-4 ovarian = test system: OVCAR-4 ovarian
MCF7 breast = test system: MCF7 breast
MDA-MB-231 breast = test system: MDA-MB-231 breast
OVCAR-3 ovarian = test system: OVCAR-3 ovarian
U251 CNS = test system: U251 CNS
NCI/ADR-RES ovarian = test system: NCI/ADR-RES ovarian
MOLT-4 leukemia = test system: MOLT-4 leukemia
ACHN renal = test system: ACHN renal
KM12 colon = test system: KM12 colon
MDA-MB-435 = test system: MDA-MB-435

SMILES: COC(=O)[C@]12CC[C@H]3CN(C(=O)OCc4ccccc4)[C@H]([C@H]31)[C@H](c1ccccc1)N2
- TGI (HCC-2998 colon): > 100 µM
- TGI (RPMI-8226 leukemia): > 100 µM
- TGI (SN12C renal): > 100 µM
- TGI (CAKI-1 renal): > 100 µM
- TGI (SK-MEL-2 melanoma): > 100 µM
- TGI (NCI-H460 lung): > 100 µM
- TGI (A549 NSCLC): > 100 µM
- TGI (UACC-257 melanoma): > 100 µM
- TGI (SK-OV-3 ovarian): > 100 µM
- TGI (HOP-62 NSCLC): > 100 µM
- TGI (NCI-H226 lung): > 100 µM
- TGI (UACC-62 melanoma): > 100 µM
- TGI (OVCAR-5 ovarian): > 100 µM
- TGI (HCT-116 colon): > 100 µM
- TGI (NCI-H23 lung): > 100 µM
- TGI (SW-620 colon): > 100 µM
- TGI (BT-549 breast): > 100 µM
- TGI (HS 578T breast): > 100 µM
- TGI (HL-60(TB) leukemia): > 100 µM
- TGI (DU-145 prostate): > 100 µM
- TGI (COLO 205 colon): > 100 µM
- TGI (SF-295 CNS): > 100 µM
- TGI (LOX IMVI melanoma): > 100 µM
- TGI (OVCAR-8 ovarian): > 100 µM
- TGI (SF-268 CNS): > 100 µM
- TGI (SNB-19 CNS): > 100 µM
- TGI (SR leukemia): > 100 µM
- TGI (EKVX NSCLC): > 100 µM
- TGI (HOP-92 NSCLC): > 100 µM
- TGI (RXF 393 renal): > 100 µM
- TGI (IGROV1 ovarian): > 100 µM
- TGI (M14 melanoma): > 100 µM
- TGI (T-47D breast): > 100 µM
- TGI (UO-31 renal): > 100 µM
- TGI (TK-10 renal): > 100 µM
- TGI (A498 renal): > 100 µM
- TGI (HCT-15 colon): > 100 µM
- TGI (K-562 leukemia): > 100 µM
- TGI (SK-MEL-5 melanoma): 58.3 µM
- TGI (786-0 renal): > 100 µM
- TGI (CCRF-CEM leukemia): > 100 µM
- TGI (HT29 colon): > 100 µM
- TGI (PC-3 prostate): > 100 µM
- TGI (SK-MEL-28 melanoma): > 100 µM
- TGI (NCI-H522 lung): > 100 µM
- TGI (MDA-N): > 100 µM
- TGI (SNB-75 CNS): > 100 µM
- TGI (SF-539 CNS): > 100 µM
- TGI (OVCAR-4 ovarian): > 100 µM
- TGI (MCF7 breast): > 100 µM
- TGI (MDA-MB-231 breast): > 100 µM
- TGI (OVCAR-3 ovarian): > 100 µM
- TGI (U251 CNS): > 100 µM
- TGI (NCI/ADR-RES ovarian): > 100 µM
- TGI (MOLT-4 leukemia): > 100 µM
- TGI (ACHN renal): > 100 µM
- TGI (KM12 colon): > 100 µM
- TGI (MDA-MB-435): > 100 µM

SMILES: C/C=C(/C)C(=O)O[C@H]1CCN2CC=C(COC(=O)[C@@](O)([C@H](C)OC)C(C)(C)O)[C@H]12
- TGI (HCC-2998 colon): > 100 µM
- TGI (RPMI-8226 leukemia): > 100 µM
- TGI (SN12C renal): > 100 µM
- TGI (CAKI-1 renal): > 100 µM
- TGI (SK-MEL-2 melanoma): > 100 µM
- TGI (A549 NSCLC): > 100 µM
- TGI (UACC-257 melanoma): > 100 µM
- TGI (SK-OV-3 ovarian): > 100 µM
- TGI (HOP-62 NSCLC): > 100 µM
- TGI (NCI-H226 lung): > 100 µM
- TGI (UACC-62 melanoma): > 100 µM
- TGI (OVCAR-5 ovarian): > 100 µM
- TGI (HCT-116 colon): > 100 µM
- TGI (NCI-H23 lung): > 100 µM
- TGI (SW-620 colon): > 100 µM
- TGI (BT-549 breast): > 100 µM
- TGI (HS 578T breast): > 100 µM
- TGI (HL-60(TB) leukemia): > 100 µM
- TGI (DU-145 prostate): > 100 µM
- TGI (COLO 205 colon): > 100 µM
- TGI (SF-295 CNS): > 100 µM
- TGI (LOX IMVI melanoma): > 100 µM
- TGI (OVCAR-8 ovarian): > 100 µM
- TGI (SF-268 CNS): > 100 µM
- TGI (SNB-19 CNS): > 100 µM
- TGI (SR leukemia): > 100 µM
- TGI (EKVX NSCLC): > 100 µM
- TGI (HOP-92 NSCLC): > 100 µM
- TGI (IGROV1 ovarian): > 100 µM
- TGI (M14 melanoma): > 100 µM
- TGI (T-47D breast): > 100 µM
- TGI (UO-31 renal): > 100 µM
- TGI (TK-10 renal): > 100 µM
- TGI (A498 renal): > 100 µM
- TGI (HCT-15 colon): > 100 µM
- TGI (K-562 leukemia): > 100 µM
- TGI (SK-MEL-5 melanoma): > 100 µM
- TGI (786-0 renal): > 100 µM
- TGI (CCRF-CEM leukemia): > 100 µM
- TGI (HT29 colon): > 100 µM
- TGI (PC-3 prostate): > 100 µM
- TGI (SK-MEL-28 melanoma): > 100 µM
- TGI (NCI-H522 lung): > 100 µM
- TGI (MDA-N): > 100 µM
- TGI (SNB-75 CNS): > 100 µM
- TGI (SF-539 CNS): > 100 µM
- TGI (OVCAR-4 ovarian): > 100 µM
- TGI (MCF7 breast): > 100 µM
- TGI (MDA-MB-231 breast): > 100 µM
- TGI (OVCAR-3 ovarian): > 100 µM
- TGI (U251 CNS): > 100 µM
- TGI (NCI/ADR-RES ovarian): > 100 µM
- TGI (MOLT-4 leukemia): > 100 µM
- TGI (ACHN renal): > 100 µM
- TGI (KM12 colon): > 100 µM
- TGI (MDA-MB-435): > 100 µM

— PubChem BioAssay (NCI)
